Measurements published in US10280184B2, “Heterocyclic kinase inhibitors” (AbbVie Inc., priority 2014, dated 2019).

target: CSF-1R (Homo sapiens (Human), UniProt P07333); test: In vitro CSF-1R kinase activity measured by trFRET; format: biochemical; details: recombinant human catalytic domain (aa 538-910), 0.1 mM ATP; read-out: CSF-1R enzyme IC50
Description: In Vitro CSF-1R Kinase Activity Measured by Time-Resolved Fluorescence Resonance Energy Transfer (trFRET)
The CSF-1R construct corresponds to recombinant human catalytic domain (aa 538-910), which was purchased from Invitrogen (cat #PV4092). CSF-1R was mixed with peptide substrate (biotin-TYR1, Sequence: Biotin-(Ahx)-GAEEEIYAAFFA-COOH, 4 μM final) at varying inhibitor concentrations in reaction buffer: 50 mM MOPSO pH 6.5, 10 mM MgCl2, 2 mM MnCl2, 2.5 mM DTI, 0.01% BSA, 0.1 mM Na3VO4 and 0.1 mM ATP. After about 60 min incubation at rt, the reaction was quenched by addition of EDTA (final concentration: 100 mM) and developed by addition of detection reagents (final approximate concentrations: 30 mM HEPES pH 7.0, 0.06% BSA, 0.006% Tween-20, 0.24 M KF, 80 ng/mL PT66K (europium labeled anti-phosphotyrosine antibody cat #61T66KLB Cisbio, Bedford, Mass.) and 0.6 μg/mL SAXL (Phycolink streptavidin-allophycocyanin acceptor, cat #PJ25S, Prozyme, San Leandro, Calif.). The developed reaction was incubated in the dark for about 60 min at rt, then read via a time-resolved fluorescence detector (Rubystar, BMG) using a 337 nm laser for excitation and monitoring emission wavelength at 665 nm. Within the linear range of the assay, the observed signal at 665 nm was directly related to phosphorylated product and can be used to calculate the IC50 values.

CSF-1R, sequence (P07333 538-910): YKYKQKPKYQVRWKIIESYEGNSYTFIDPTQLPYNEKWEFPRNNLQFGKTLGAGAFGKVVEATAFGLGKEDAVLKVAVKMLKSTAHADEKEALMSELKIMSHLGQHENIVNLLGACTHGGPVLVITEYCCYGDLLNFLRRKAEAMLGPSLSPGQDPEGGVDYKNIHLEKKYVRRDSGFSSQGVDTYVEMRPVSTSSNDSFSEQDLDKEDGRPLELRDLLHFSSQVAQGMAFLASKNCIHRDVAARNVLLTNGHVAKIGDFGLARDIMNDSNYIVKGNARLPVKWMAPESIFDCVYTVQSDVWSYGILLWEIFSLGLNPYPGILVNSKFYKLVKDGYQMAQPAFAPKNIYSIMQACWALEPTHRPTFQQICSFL

IC50, < 100 nM:
CC(=O)N1CCC(n2cc(Nc3nc(C4CCCCC4)cn4ncnc34)cn2)CC1 [F.1.43, 1-(4-(4-((6-cyclohexyl-[1,2,4]triazolo[1,5-a]pyrazin-8-yl)amino)-1H-pyrazol-1-yl)piperidin-1-yl)ethanone]
CNC(=O)N1CCC(n2cc(Nc3nc(C4CCCCC4)cn4ncnc34)cn2)CC1 [F.1.44, 4-(4-((6-cyclohexyl-[1,2,4]triazolo[1,5-a]pyrazin-8-yl)amino)-1H-pyrazol-1-yl)-N-methylpiperidine-1-carboxamide]
CC(C)(O)Cn1cc(Nc2nc(C3CCCCC3)cn3ncnc23)cn1 [Example 11, 1-(4-((6-cyclohexyl-[1,2,4]triazolo[1,5-a]pyrazin-8-yl)amino)-1H-pyrazol-1-yl)-2-methylpropan-2-ol]
Cn1cc(Nc2nc([C@H]3CC[C@H](C(F)(F)F)CC3)cn3ncnc23)cn1 [E.1.5, N-(1-methyl-1H-pyrazol-4-yl)-6-((1R,4R)-4-(trifluoromethyl)cyclohexyl)-[1,2,4]triazolo[1,5-a]pyrazin-8-amine]
OC1CCN(c2ccc(Nc3cc(C4CCCCC4)cn4ncnc34)nc2)CC1 [Example 13, 1-(6-((6-cyclohexyl-[1,2,4]triazolo[1,5-a]pyridin-8-yl)amino)pyridin-3-yl)piperidin-4-ol]
O[C@@H]1CCC[C@H](n2cc(Nc3nc(C4CCCCC4)cn4ncnc34)cn2)C1 [G.1.3]
c1nc2c(Nc3cc4n(n3)CCOC4)cc(C3CCCC3)cn2n1 [Example 12, N-(6-cyclopentyl-[1,2,4]triazolo[1,5-a]pyridin-8-yl)-6,7-dihydro-4H-pyrazolo[5,1-c][1,4]oxazin-2-amine]
CN1CCn2nc(Nc3cc(C4CCCCC4)cn4ncnc34)cc2C1 [E.1.7, 6-cyclohexyl-N-(5-methyl-4,5,6,7-tetrahydropyrazolo[1,5-a]pyrazin-2-yl)-[1,2,4]triazolo[1,5-a]pyridin-8-amine]
c1nc2c(Nc3cnn(C4COC4)c3)nc(C3CCCCC3)cn2n1 [A.1.4, 6-cyclohexyl-N-(1-(oxetan-3-yl)-1H-pyrazol-4-yl)-[1,2,4]triazolo[1,5-a]pyrazin-8-amine]
